Assay: Solubility of the catalyst
Type: physicochemical
Conditions: ambient temperature (25° C.)

CC(C)C/C(=C/C(=O)C(C)(C)C)[O][Zn][O]/C(=C\C(=O)C(C)(C)C)CC(C)C [Catalyst (6), zinc bis(2,2,7-trimethyl-3,5-octanedionate)]
solubility: soluble in organic solvents, even in alkanes, and in silicone oils

— US20110305911A1, “ARTICLE HAVING ANTIFOULING PROPERTIES AND INTENDED TO BE USED IN AQUATIC APPLICATIONS, PARTICULARLY MARINE APPLICATIONS” (BLUESTAR SILICONES FRANCE, priority 2008, published 2011)
